Data: US11413254B2, “Application for (2R, 4R)-1,2,4-trihydroxyheptadec-16-yne in preparation of pharmaceutical composition for preventing or treating hepatic injury” (KAOHSIUNG MEDICAL UNIVERSITY, priority 2016, dated 2022)

Legend:
[1] = test system: fatty acid disease induced by high fat feed; experiment: Hepatocellular injury and abnormalities of fatty acid disease induced by high fat feed, liver H&E staining; type: in vivo, C57BL/6 (B6) mice; conditions: male B6 mice, 100 mg/kg/day TY force fed, high fat feed (60% fat calorie) 18 weeks, FIG. 7
Method: Example 7. Hepatocellular injury and abnormalities of fatty acid disease induced by high fat feed were treated with TY. 15 male, 8-10 weeks old of C57BL/6 (B6) mice (20-22 g) were randomly divided into 3 groups, and 4-5 B6 mice in each group, they were: 1. Healthy control group: fed with normal feed (the percentage of fat calories 5-6%); 2. Negative control group: fed with high fat feed (the percentage of fat calorie 60%) and force fed with physiological saline; 3. Experimental group: animals were given the same high fat feed as the Negative control group and force fed with 100 mg/kg/day of TY (high fat feed and TY). 1 week before liver injury was induced by the high fat feed, the experimental samples began to be given daily, respectively, the drug solvent of the same volume as TY to Groups 1 and 2, and 100 mg/kg of TY daily to Group 3. After 1 week, Groups 2 and 3 began to be given high fat feed, and continuously to be force fed with the drug solvent of the same volume as TY and 100 mg/kg/day of TY for 18 weeks. The mice began to fast on the 18th week, and 12 hours after fasting, all B6 mice were sacrificed. After the mice were sacrificed, livers were collected and soaked in formalin, stained with H&E staining, and then observed and images taken with a microscope.

[2] = test system: acute hepatitis caused by alcohol (ethanol); experiment: Acute hepatitis caused by alcohol (ethanol), serum liver function indicators; type: in vivo; conditions: male Wistar rats, 100 mg/kg/day TY force fed, 50% ethanol
Method: Example 3. The effect of TY on the treatment of acute hepatitis caused by alcohol (ethanol). Nine male Wistar rats (200-250 g) were randomly divided into 3 groups, 3 Wistar rats in each group, they were: 1. Healthy control group: force fed with physiological saline (2.5 mg/kg) of the same volume as TY; 2. Negative control group (ethanol and physiological saline): force fed with physiological saline of the same volume as TY and force fed with 50% ethanol; 3. Experimental group (ethanol and 100 mg/kg/day of TY): force fed 100 mg/kg/day of TY and force fed with 50% ethanol. First, the drug solvent or TY was administered by force feeding once daily, and the first force feeding was defined as the first day. One hour after force feeding on the fourth day, Group 1 was given physiological saline (2.5 mg/kg), Groups 2-3 were given […] 50% ethanol (2.5 mg/kg), respectively. The rats were force fed with ethanol again 12 hours after the first force feeding, and fasted 12 hours after the second force feeding. After being fasted for 12 hours, all Wistar rats were sacrificed. Prior to being sacrificed, blood was collected from the heart and serum was separated for analysis of the biochemical function of the liver.

[3] = test system: fatty acid liver disease caused by high fat feed; experiment: Chronic hepatitis of fatty acid liver disease caused by high fat feed, serum liver function indicators; type: in vivo, C57BL/6 (B6) mice; conditions: male B6 mice, 100 mg/kg/day TY force fed, high fat feed (60% fat calorie) 18 weeks
Method: Example 5. Chronic hepatitis of fatty acid liver disease caused by high fat feed was treated by TY. 15 male, 8-10 weeks old of C57BL/6 (B6) mice (20-22 g) were randomly divided into 3 groups, 4-5 B6 mice in each group, they were: 1. Healthy control group: fed with normal feed (the percentage of fat calories 5-6%); 2. Negative control group: fed with high fat feed (the percentage of fat calorie 60%) and physiological saline; 3. Experimental group: animals were given the same high fat feed as the Negative control group and force fed with 100 mg/kg/day of TY. 1 week before liver injury was induced by high fat feed, the experimental samples began to be given daily, respectively, drug solvent of the same volume as TY to Groups 1 and 2, and 100 mg/kg/daily of TY to Group 3. After 1 week, Groups 2 and 3 began to be given high fat feed, and continuously to be force fed with the drug solvent of the volume same as TY and 100 mg/kg/day of TY for 18 weeks. The mice began to fast on the 18th week, and 12 hours after fasting, all B6 mice were sacrificed. Prior to being sacrificed, blood was collected from the heart and serum was separated for analysis of the biochemical function of the liver.

[4] = test system: hepatocellular injury and abnormalities caused by alcohol (ethanol); experiment: Hepatocellular injury and abnormalities caused by alcohol (ethanol), liver H&E staining; type: in vivo; conditions: male Wistar rats, 100 mg/kg/day TY force fed, 50% ethanol, FIG. 4
Method: Example 4. Hepatocellular injury and abnormalities caused by alcohol (ethanol) were treated by TY. Nine male Wistar rats (200-250 g) were randomly divided into 3 groups, 3 Wistar rats in each group, they were: 1. Healthy control group: force fed with drug solvent of the same volume as TY and force fed with physiological saline (2.5 mg/kg); 2. Negative control group (ethanol and physiological saline): force fed with physiological saline of the same volume as TY and force fed with 50% ethanol; 3. Experimental group (Ethanol and 100 mg/kg/day of TY): force fed 100 mg/kg/day of TY and force fed with 50% ethanol. First, food solvent or TY was administered by force feeding once daily, and the first force feeding was defined as the first day. One hour after force feeding on the fourth day, Group 1 was given physiological saline (2.5 mg/kg), Groups 2-3 were given 50% ethanol injection (2.5 mg/kg), respectively. The rats were force fed with ethanol again 12 hours after the first force feeding, and fasted 12 hours after the second force feeding. After being fasted for 12 hours, all Wistar rats were sacrificed. After the rats were sacrificed, livers were collected and soaked in formalin, and stained with H&E staining, then observed and images taken with a microscope.

[5] = test system: hepatocellular injury and necrosis caused by carbon tetrachloride; experiment: Hepatocellular injury and necrosis caused by carbon tetrachloride, liver H&E staining; type: in vivo; conditions: male Wistar rats, 100 mg/kg/day TY force fed, 20% carbon tetrachloride/olive oil i.p., FIG. 2
Method: Example 2. Hepatocellular injury and necrosis caused by carbon tetrachloride were treated by TY. Nine male Wistar rats (200-250 g) were randomly divided into 3 groups, 3 Wistar rats in each group, they were: 1. Healthy control group: force fed with drug solvent of the same volume as TY and intraperitoneal injection of olive oil (2.5 mg/kg); 2. Negative control group (carbon tetrachloride and physiological saline): force fed with physiological saline and intraperitoneal injection of 20% carbon tetrachloride/olive oil of the same volume as TY; 3. Experimental group (carbon tetrachloride and 100 mg/kg/day of TY): force fed 100 mg/kg/day of TY and intraperitoneal injection of 20% carbon tetrachloride/olive oil. First, the physiological saline or TY was administered by force feeding once daily, and the first force feeding was defined as the first day. One hour after the force feeding on the fourth day, Group 1 was given intraperitoneal injection of olive oil (2.5 mg/kg), Groups 2-3 were given intraperitoneal injection of 20% carbon tetrachloride/olive oil (2.5 mg/kg), respectively. The rats were fasted 12 hours after injection, all Wistar rats were sacrificed 12 hours after fasting. After the rats were sacrificed, livers were collected and soaked in formalin, and stained with H&E staining, then observed and images were taken with a microscope.

[6] = test system: acute hepatitis caused by carbon tetrachloride; experiment: Acute hepatitis caused by carbon tetrachloride, serum liver function indicators; type: in vivo; conditions: male Wistar rats, 100 mg/kg/day TY force fed, 20% carbon tetrachloride/olive oil i.p. on fourth day
Method: Example 1. The effect of TY for the treatment of acute hepatitis caused by carbon tetrachloride was tested. Nine male Wistar rats (200-250 g) were randomly divided into 3 groups, 3 Wistar rats in each group, they were: 1. Healthy control group: force fed with drug solvent and intraperitoneal injection of olive oil (2.5 mg/kg) of the same volume as TY; 2. Negative control group (carbon tetrachloride and physiological saline): force fed with physiological saline and intraperitoneal injection of 20% carbon tetrachloride/olive oil of the same volume as TY; 3. Experimental group (carbon tetrachloride and 100 mg/kg/day of TY): force fed 100 mg/kg/day of TY and intraperitoneal injection of 20% carbon tetrachloride/olive oil. First, the drug solvent or TY was administered by force feeding once daily and the first force feeding was defined as the first day. One hour after force feeding on the fourth day, Group 1 was given intraperitoneal injection of olive oil (2.5 mg/kg), Groups 2-3 were given intraperitoneal injection of 20% carbon tetrachloride/olive oil (2.5 mg/kg), fasted 12 hours after injection, all Wistar rats were sacrificed 12 hours after fasting. Prior to being sacrificed, blood was collected from the heart and serum was separated for analysis of the biochemical function of the liver.

[7] = test system: fatty acid liver disease induced by high fat feed; experiment: Serum triglyceride level of mice with fatty acid liver disease induced by high fat feed; type: in vivo, C57BL/6 (B6) mice; conditions: male B6 mice, 100 mg/kg/day TY force fed, high fat feed (60% fat calorie) 18 weeks, FIG. 6
Text: Example 6. TY decreased serum triglyceride level of the mice with fatty acid liver disease induced by high fat feed. 15 male, 8-10 weeks old of C57BL/6 (B6) mice (20-22 g) were randomly divided into 3 groups, 4-5 B6 mice in each group, and they were: 1. Healthy control group: fed with normal feed (the percentage of fat calories 5-6%); 2. Negative control group: fed with high fat feed (the percentage of fat calorie 60%) and force fed with physiological saline (high fat feed and physiological saline); 3. Experimental group: animals were given the same high fat feed as the Negative control group and force fed with 100 mg/kg/day of TY (high fat feed and TY). 1 week before liver injury was induced by the high fat feed, the experimental samples began to be given daily, respectively, drug solvent of the same volume as TY to Groups 1 and 2, and 100 mg/kg of TY daily to Group 3. after 1 week, Groups 2 and 3 began to be given high fat feed, and continuously to be force fed with the drug solvent of the same volume as TY and 100 mg/kg/day of TY for 18 weeks. The mice began to fast on the 18th week, and 12 hours after fasting, all B6 mice were sacrificed. Prior to being sacrificed, blood was collected from the heart and serum was separated for analysis of the serum triglyceride level.

Compound: C#CCCCCCCCCCCC[C@@H](O)C[C@@H](O)CO [TY, (2R,4R)-1,2,4-trihydroxy heptadec-16-yne]
- liver injury and tissue abnormalities caused by the high fat feed (H&E staining) [1]: capable of reducing the liver injury and tissue abnormalities
- liver function indicator GOT/AST increased by ethanol ([2]; FIG. 3A): significantly decreased
- liver function indicator GPI/ALT increased by ethanol ([2]; FIG. 3B): significantly decreased
- liver function indicator GOT/AST increased by the high-fat feed ([3]; FIG. 5A): significantly decreased
- liver function indicator GPT/ALT increased by the high-fat feed ([3]; FIG. 5B): significantly decreased
- liver injury and tissue abnormalities caused by ethanol (H&E staining) [4]: capable of reducing the liver injury and tissue abnormalities
- hepatocellular necrosis near the central vein caused by carbon tetrachloride (H&E staining) [5]: capable of effectively reducing hepatocellular necrosis near the central vein
- liver function indicator GOT/AST increased by carbon tetrachloride ([6]; FIG. 1A): significantly decreased
- liver function indicator GPI/ALT increased by carbon tetrachloride ([6]; FIG. 1B): significantly decreased
- serum triglyceride level increased by the high-fat diet [7]: significantly decreased
